One block for each compound: values may come before it. Positions of bridges follow the written chain, without caps; N, C: chain ends. No end group written: not given here.
Legend:
[1] = system: FDC-P2 cells expressing the IL-3 and human IGF-1R receptors; assay: IGF-1 proliferation assay in FDC-P2 cells, agonist format; settings: FDC-P2 cells, agonist format; for EC50: read-out: nM ED50 Growth
[2] = biological target: T1, soluble human insulin receptor-immunoglobulin heavy chain chimera (sIR-Fc) (Homo sapiens, UniProt P06213); assay: Fluorescence polarization, competition with FITC-RP9 for sIR-Fc; assay type: binding; settings: higher values indicated higher affinity for IR than IGF-1R
T1 construct: replacing the transmembrane domain and the intracellular domain of IR with constant domains from immunoglobulin Fc or λ subunits; made in house; host or cells: human embryonic kidney 293 cells (Bass et al.)
T1 sequence (P06213 28-758 limits assumed, stated change not applied): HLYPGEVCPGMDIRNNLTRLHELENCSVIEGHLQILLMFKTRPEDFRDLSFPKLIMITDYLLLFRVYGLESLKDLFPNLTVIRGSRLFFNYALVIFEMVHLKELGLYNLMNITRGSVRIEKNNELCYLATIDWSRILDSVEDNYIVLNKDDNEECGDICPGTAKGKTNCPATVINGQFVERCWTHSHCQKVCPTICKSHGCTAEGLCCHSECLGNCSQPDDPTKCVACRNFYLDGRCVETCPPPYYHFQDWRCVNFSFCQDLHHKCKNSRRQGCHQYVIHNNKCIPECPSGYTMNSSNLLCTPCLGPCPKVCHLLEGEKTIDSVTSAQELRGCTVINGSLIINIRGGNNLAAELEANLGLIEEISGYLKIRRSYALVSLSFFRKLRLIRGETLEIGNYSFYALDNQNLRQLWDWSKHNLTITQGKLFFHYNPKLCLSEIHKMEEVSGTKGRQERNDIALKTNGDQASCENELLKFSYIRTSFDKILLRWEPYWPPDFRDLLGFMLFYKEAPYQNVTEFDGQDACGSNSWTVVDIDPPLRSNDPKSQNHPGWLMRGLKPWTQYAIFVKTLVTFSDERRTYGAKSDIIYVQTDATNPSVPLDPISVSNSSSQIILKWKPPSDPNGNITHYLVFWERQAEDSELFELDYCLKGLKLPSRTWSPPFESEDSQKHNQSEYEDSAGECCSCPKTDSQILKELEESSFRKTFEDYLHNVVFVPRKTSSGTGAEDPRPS
T1 sequence (P06213 763-956 limits assumed, stated change not applied): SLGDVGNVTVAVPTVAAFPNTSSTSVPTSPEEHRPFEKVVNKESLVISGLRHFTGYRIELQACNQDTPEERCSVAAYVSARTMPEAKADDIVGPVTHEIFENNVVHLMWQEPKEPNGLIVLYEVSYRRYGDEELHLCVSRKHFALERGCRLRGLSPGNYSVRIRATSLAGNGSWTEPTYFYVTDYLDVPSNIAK

[3] = biological target: T2, human insulin receptor (HIR) (Homo sapiens, UniProt P06213); assay: Insulin receptor binding, competition with 125I-labeled insulin (HIR Kd)
T2 construct: made in house
T2 sequence (P06213 28-758 limits assumed): as the sequence (P06213 28-758 limits assumed, stated change not applied) above
T2 sequence (P06213 763-1382 limits assumed): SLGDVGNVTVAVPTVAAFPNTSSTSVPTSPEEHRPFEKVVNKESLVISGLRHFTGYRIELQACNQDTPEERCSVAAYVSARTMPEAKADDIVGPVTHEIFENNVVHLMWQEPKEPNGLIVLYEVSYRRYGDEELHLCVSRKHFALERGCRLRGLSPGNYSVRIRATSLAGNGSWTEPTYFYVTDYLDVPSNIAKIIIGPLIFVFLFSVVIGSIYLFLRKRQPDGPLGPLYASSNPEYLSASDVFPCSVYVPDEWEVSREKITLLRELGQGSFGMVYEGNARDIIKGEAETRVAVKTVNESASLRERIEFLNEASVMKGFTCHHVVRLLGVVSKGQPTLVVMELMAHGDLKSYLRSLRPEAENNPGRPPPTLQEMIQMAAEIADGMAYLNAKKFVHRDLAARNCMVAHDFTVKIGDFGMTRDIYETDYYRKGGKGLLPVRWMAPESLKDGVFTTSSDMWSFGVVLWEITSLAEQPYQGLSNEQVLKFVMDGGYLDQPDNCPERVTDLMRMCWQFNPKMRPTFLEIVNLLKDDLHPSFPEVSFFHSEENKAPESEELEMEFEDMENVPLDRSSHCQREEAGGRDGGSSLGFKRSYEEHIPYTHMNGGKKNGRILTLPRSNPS

[4] = system: free fat cells (adipocytes); assay: Adipocyte / free fat cell (FFC) assay, 3H glucose incorporation into lipid
[5] = MBP-fusion or recombinant peptide as listed
[6] = FFC assay potency grade, 0, + to ++++++, −

Compound: WLDQERAWLWCEISGRGCLSGGSGGSGGSGGSGSLDESFYDWFERQLGKK (disulfide 11-18 (inferred)) [D815-RP9 12 aa]
Max Action [1]: 100%
EC50 [1]: 10000 nM

Bndg Ratio IGF-1R/IR [2]: 9
Compound: FHENFYDWFVQRVSKK [H2C (D117)]

Kd [3, 5]: 0.21 µM
Compound: MGSLDESFYDWFERQLGEEEGGDHHHHHHPG [RB569]

Compound: CC(C)[C@H](NC(=O)[C@H](Cc1ccccc1)NC(=O)[C@H](Cc1c[nH]c2ccccc12)NC(=O)[C@H](CC(=O)O)NC(=O)[C@H](Cc1ccc(O)cc1)NC(=O)[C@H](Cc1ccccc1)NC(=O)[C@H](CC(N)=O)NC(=O)[C@H](CCC(=O)O)NC(=O)[C@H](Cc1c[nH]cn1)NC(=O)[C@H](Cc1ccccc1)NC(=O)[C@@H](N)CNC(=O)CON=CCCCCC=NOCC(=O)NC[C@H](N)C(=O)N[C@@H](Cc1ccccc1)C(=O)N[C@@H](Cc1c[nH]cn1)C(=O)N[C@@H](CCC(=O)O)C(=O)N[C@@H](CC(N)=O)C(=O)N[C@@H](Cc1ccccc1)C(=O)N[C@@H](Cc1ccc(O)cc1)C(=O)N[C@@H](CC(=O)O)C(=O)N[C@@H](Cc1c[nH]c2ccccc12)C(=O)N[C@@H](Cc1ccccc1)C(=O)N[C@H](C(=O)N[C@@H](CCCNC(=N)N)C(=O)N[C@@H](CCC(N)=O)C(=O)N[C@H](C(=O)N[C@@H](CO)C(=O)N[C@@H](CCCCN)C(=O)N[C@@H](CCCCN)C(N)=O)C(C)C)C(C)C)C(=O)N[C@@H](CCCNC(=N)N)C(=O)N[C@@H](CCC(N)=O)C(=O)N[C@H](C(=O)N[C@@H](CO)C(=O)N[C@@H](CCCCN)C(=O)N[C@@H](CCCCN)C(N)=O)C(C)C [Peptide S169]
FFC [4, 6]: ++

Kd ([3]; Table 6): 0.091 µM
Compound: GSLDESFYDWFERQL [Peptide S395]
FFC ([4]; Table 6, free fat cell assay): +

Compound: WLDQERAWLWCEISGRGCLSGGSGGSGSLDESFYDWFERQLGKK (disulfide 11-18 (inferred)) [D815-RP9 6 aa]
Max Action [1]: >50%
EC50 [1]: 50 nM

Compound: MADYKDDDDKWLDQEWAWVQCEVYGRGCPSGGSGGSGSLDESFYDWFERQLGKKAAA(ETAG)PG [Peptide 539]
activity in the free fat cell (FFC) assay / at IR, in words [4]: full agonist

Compound: CC(C)[C@H](NC(=O)[C@H](Cc1ccccc1)NC(=O)[C@H](Cc1c[nH]c2ccccc12)NC(=O)[C@H](CC(=O)O)NC(=O)[C@H](Cc1ccc(O)cc1)NC(=O)[C@H](Cc1ccccc1)NC(=O)[C@H](CC(N)=O)NC(=O)[C@H](CCC(=O)O)NC(=O)[C@H](Cc1c[nH]cn1)NC(=O)[C@H](Cc1ccccc1)NC(=O)[C@@H](N)CNC(=O)CON=CCCCCCCC=NOCC(=O)NC[C@H](N)C(=O)N[C@@H](Cc1ccccc1)C(=O)N[C@@H](Cc1c[nH]cn1)C(=O)N[C@@H](CCC(=O)O)C(=O)N[C@@H](CC(N)=O)C(=O)N[C@@H](Cc1ccccc1)C(=O)N[C@@H](Cc1ccc(O)cc1)C(=O)N[C@@H](CC(=O)O)C(=O)N[C@@H](Cc1c[nH]c2ccccc12)C(=O)N[C@@H](Cc1ccccc1)C(=O)N[C@H](C(=O)N[C@@H](CCCNC(=N)N)C(=O)N[C@@H](CCC(N)=O)C(=O)N[C@H](C(=O)N[C@@H](CO)C(=O)N[C@@H](CCCCN)C(=O)N[C@@H](CCCCN)C(N)=O)C(C)C)C(C)C)C(=O)N[C@@H](CCCNC(=N)N)C(=O)N[C@@H](CCC(N)=O)C(=O)N[C@H](C(=O)N[C@@H](CO)C(=O)N[C@@H](CCCCN)C(=O)N[C@@H](CCCCN)C(N)=O)C(C)C [Peptide S172]
FFC [4, 6]: +++

Kd [3, 5]: 0.044 µM
Compound: MADYKDDDDKGSLDESFYDWFERQLGKKGGSGGSGSLDESFYDWFERQLGKKAAAGAPVPYPDPLEPRPG [RB521]

Compound: CC(C)[C@H](NC(=O)[C@H](Cc1ccccc1)NC(=O)[C@H](Cc1c[nH]c2ccccc12)NC(=O)[C@H](CC(=O)O)NC(=O)[C@H](Cc1ccc(O)cc1)NC(=O)[C@H](Cc1ccccc1)NC(=O)[C@H](CC(N)=O)NC(=O)[C@H](CCC(=O)O)NC(=O)[C@H](Cc1c[nH]cn1)NC(=O)[C@@H](N)Cc1ccccc1)C(=O)N[C@@H](CCCNC(=N)N)C(=O)N[C@@H](CCC(N)=O)C(=O)N[C@H](C(=O)N[C@@H](CO)C(=O)N[C@@H](CCCCN)C(=O)N[C@@H](CCCCN)C(=O)NC[C@H](NC(=O)[C@H](CCCCN)NC(=O)[C@H](CCCCN)NC(=O)[C@H](CO)NC(=O)[C@@H](NC(=O)[C@H](CCC(N)=O)NC(=O)[C@H](CCCNC(=N)N)NC(=O)[C@@H](NC(=O)[C@H](Cc1ccccc1)NC(=O)[C@H](Cc1c[nH]c2ccccc12)NC(=O)[C@H](CC(=O)O)NC(=O)[C@H](Cc1ccc(O)cc1)NC(=O)[C@H](Cc1ccccc1)NC(=O)[C@H](CC(N)=O)NC(=O)[C@H](CCC(=O)O)NC(=O)[C@H](Cc1c[nH]cn1)NC(=O)[C@@H](N)Cc1ccccc1)C(C)C)C(C)C)C(=O)O)C(C)C [Peptide S128]
FFC [4, 6]: ++

Compound: CC(C)[C@H](NC(=O)[C@H](Cc1ccccc1)NC(=O)[C@H](Cc1c[nH]c2ccccc12)NC(=O)[C@H](CC(=O)O)NC(=O)[C@H](Cc1ccc(O)cc1)NC(=O)[C@H](Cc1ccccc1)NC(=O)[C@H](CC(N)=O)NC(=O)[C@H](CCC(=O)O)NC(=O)[C@H](Cc1c[nH]cn1)NC(=O)[C@@H](N)Cc1ccccc1)C(=O)N[C@@H](CCCNC(=N)N)C(=O)N[C@@H](CCC(N)=O)C(=O)N[C@H](C(=O)N[C@@H](CO)C(=O)N[C@@H](CCCCN)C(=O)N[C@@H](CCCCN)C(=O)NCCCC[C@H](NC(=O)[C@H](CCCCN)NC(=O)[C@H](CCCCN)NC(=O)[C@H](CO)NC(=O)[C@@H](NC(=O)[C@H](CCC(N)=O)NC(=O)[C@H](CCCNC(=N)N)NC(=O)[C@@H](NC(=O)[C@H](Cc1ccccc1)NC(=O)[C@H](Cc1c[nH]c2ccccc12)NC(=O)[C@H](CC(=O)O)NC(=O)[C@H](Cc1ccc(O)cc1)NC(=O)[C@H](Cc1ccccc1)NC(=O)[C@H](CC(N)=O)NC(=O)[C@H](CCC(=O)O)NC(=O)[C@H](Cc1c[nH]cn1)NC(=O)[C@@H](N)Cc1ccccc1)C(C)C)C(C)C)C(=O)O)C(C)C [Peptide S145]
FFC [4, 6]: ++

Compound: CC(C)[C@H](NC(=O)[C@H](Cc1ccccc1)NC(=O)[C@H](Cc1c[nH]c2ccccc12)NC(=O)[C@H](CC(=O)O)NC(=O)[C@H](Cc1ccc(O)cc1)NC(=O)[C@H](Cc1ccccc1)NC(=O)[C@H](CC(N)=O)NC(=O)[C@H](CCC(=O)O)NC(=O)[C@H](Cc1c[nH]cn1)NC(=O)[C@H](Cc1ccccc1)NC(=O)CNC(=O)CNC(=O)[C@@H](N)CSSC[C@H](N)C(=O)NCC(=O)NCC(=O)N[C@@H](Cc1ccccc1)C(=O)N[C@@H](Cc1c[nH]cn1)C(=O)N[C@@H](CCC(=O)O)C(=O)N[C@@H](CC(N)=O)C(=O)N[C@@H](Cc1ccccc1)C(=O)N[C@@H](Cc1ccc(O)cc1)C(=O)N[C@@H](CC(=O)O)C(=O)N[C@@H](Cc1c[nH]c2ccccc12)C(=O)N[C@@H](Cc1ccccc1)C(=O)N[C@H](C(=O)N[C@@H](CCCNC(=N)N)C(=O)N[C@@H](CCC(N)=O)C(=O)N[C@H](C(=O)N[C@@H](CO)C(=O)N[C@@H](CCCCN)C(=O)N[C@@H](CCCCN)C(=O)O)C(C)C)C(C)C)C(=O)N[C@@H](CCCNC(=N)N)C(=O)N[C@@H](CCC(N)=O)C(=O)N[C@H](C(=O)N[C@@H](CO)C(=O)N[C@@H](CCCCN)C(=O)N[C@@H](CCCCN)C(=O)O)C(C)C [Peptide S228]
FFC [4, 6]: ++

Compound: GSLDESFYDWFERQLG [Peptide S386]
FFC [4, 6]: +

Kd [3, 5]: 0.055 µM
Compound: DYKDDDDKVRVDWLQRNANFYAWFVAELGGGSGGSGGSGGSGRVDWLQRNANFYDWFVAELGAAAGAPVPYPDPLEPRAA [RB509]

Kd [3, 5]: 0.025 µM
Compound: MQNDDGSLDESFYDWFERQLGEEEGGDHHHHHHPG [RB570]

Reference: patent publication US20070004634A1 (Novo Nordisk A/S, priority 1998, published 2007)
